Results as given in publication PMC4575645 (ACS chemical biology, 2015).
One block for each compound: values may come before it.

Assays:
[1] = molecular target: CalS13 (Micromonospora echinospora, UniProt Q8KND8); assay: X-ray crystal structure, […] Å; format: binding
[2] = molecular target: WecE (Escherichia coli, UniProt P27833); assay: X-ray crystal structure, […] Å; format: binding; settings: covalent external aldimine with PLP; eight subunits
Chain of WecE (P27833 whole entry): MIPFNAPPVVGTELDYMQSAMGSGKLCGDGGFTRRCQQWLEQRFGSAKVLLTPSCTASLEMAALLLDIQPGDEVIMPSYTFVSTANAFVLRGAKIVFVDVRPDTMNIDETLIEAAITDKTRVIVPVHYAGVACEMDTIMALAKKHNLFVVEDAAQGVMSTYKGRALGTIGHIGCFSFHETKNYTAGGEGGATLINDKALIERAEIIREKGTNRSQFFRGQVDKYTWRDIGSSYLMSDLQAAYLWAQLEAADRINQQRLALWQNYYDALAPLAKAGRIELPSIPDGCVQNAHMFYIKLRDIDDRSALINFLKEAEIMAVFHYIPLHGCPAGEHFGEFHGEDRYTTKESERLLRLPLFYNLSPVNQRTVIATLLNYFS

SMILES: Cc1ncc(COP(=O)(O)O)c(C=O)c1O [PLP]
X-ray crystal structure, 2.47 Å ([1]; covalent internal aldimine with Lys202, all six subunits): All six subunits contained PLP as internal aldimines of Lys202

SMILES: Cc1cn([C@H]2C[C@H](O)[C@@H](COP(=O)(O)OP(=O)(O)O[C@H]3O[C@H](C)[C@H](N)[C@H](O)[C@H]3O)O2)c(=O)[nH]c1=O [TDP-4-amino-4,6-dideoxy-α-D-galactose]
X-ray crystal structure, 2.24 Å [2]: WecE cocrystallization led to WecE/PLP/TDP-4-amino-4,6-dideoxygalactose ternary complexes

X-ray crystal structure, 2.47 Å ([1]; with PLP internal aldimine, three of six subunits): three had electron density for just TDP
SMILES: Cc1cn([C@H]2C[C@H](O)[C@@H](COP(=O)(O)OP(=O)(O)O)O2)c(=O)[nH]c1=O [TDP]
